Results taken from patent US9783527B2, “Indazole ureas and method of use” (AbbVie Inc., priority 2014, dated 2017).

biological target: human Nav1.7 (Homo sapiens (Human), UniProt Q15858); experiment: FRET-based membrane potential assay, recombinant human sodium channel Nav1.7; assay type: cell-based; settings: HEK293 cells stably expressing recombinant human Nav1.7; depolarization with veratridine (EC80) + scorpion venom
Experimental: FRET-Based Membrane Potential Assays.
Recombinant, Human Sodium Channel, Nav1.7.
Two days prior to the experiment, frozen HEK293 cells stably expressing recombinant human Nav1.7 were quickly thawed and plated at 25,000 cells/well in growth medium [DMEM (Invitrogen #11965) with 10% HI FBS (Invitrogen #10082), 2 mM glutamine, 100 units/mL penicillin, 0.1 mg/mL streptomycin (PSG, Sigma #G1146), and 500 μg/mL Geneticin (Invitrogen #10131)] in black-walled, clear-bottom 384-well poly-D-lysine-coated assay plates (Greiner Bio-One, Frickenhausen, Germany) and incubated in a humidified 5% CO2 incubator at 37° C. On the day of the assay, medium was removed by aspiration, and cells were washed with assay buffer [HBSS (Invitrogen, Carlsbad, Calif.) containing 20 mM HEPES (Invitrogen, Carlsbad, Calif.)]. After washing, 30 μL assay buffer containing the fluorescent voltage-sensor probe CC2-DMPE (Invitrogen, Carlsbad, Calif.) at 20 μM and 0.01% pluronic F-127 (Invitrogen, Carlsbad, Calif.) was added to the cells. Cells were incubated for 40 minutes at room temperature in the dark. Following the incubation, the cells were washed and 30 μL assay buffer containing 2.5 μM DiSBAC2(3) substrate (Invitrogen, Carlsbad, Calif.) and 0.5 mM VABSC-1 (Invitrogen, Carlsbad, Calif.) was added to the cells. The cells were incubated for 90 minutes at room temperature in the dark. Fluorescence readings were made using a FLIPR®^TETRA (Molecular Devices, Sunnyvale Calif.) equipped with voltage-sensor probe optics. At the start of each experiment the optimal (EC80) concentration of depolarizing agent (veratridine) was determined by testing a dilution curve of assay buffer containing veratridine (Sigma-Aldrich, St. Louis, Mo.) and 1 mg/mL scorpion venom (SVqq, from Leiurus quinquestriatus; Sigma-Aldrich, St. Louis, Mo.). […] Test compounds in the daughter plate were diluted to (˜3×) solutions in assay buffer immediately before assaying. Using the FLIPR®^TETRA, 20 μL of the (3×) compound solutions were first added to the cells, then 20 μL of depolarizing solution (3×EC80 veratridine+SVqq) were added 3 minutes later to activate the channel. Changes in fluorescence were measured at wavelengths of 440-480 nm and 565-625 nm over the course of the experimental run. Membrane depolarization was expressed as a ratio of the maximum F440-480 nm/F565-625 nm reading above average baseline F440-480 nm/F565-625 nm reading. IC50 values were calculated from curve fits of the ratio data using a four-parameter logistic Hill equation (Accelrys Assay Explorer 3.3 Client, Accelrys, San Diego, Calif.) with percent inhibition plotted against compound concentration.

Chain of human Nav1.7 (Q15858 whole entry): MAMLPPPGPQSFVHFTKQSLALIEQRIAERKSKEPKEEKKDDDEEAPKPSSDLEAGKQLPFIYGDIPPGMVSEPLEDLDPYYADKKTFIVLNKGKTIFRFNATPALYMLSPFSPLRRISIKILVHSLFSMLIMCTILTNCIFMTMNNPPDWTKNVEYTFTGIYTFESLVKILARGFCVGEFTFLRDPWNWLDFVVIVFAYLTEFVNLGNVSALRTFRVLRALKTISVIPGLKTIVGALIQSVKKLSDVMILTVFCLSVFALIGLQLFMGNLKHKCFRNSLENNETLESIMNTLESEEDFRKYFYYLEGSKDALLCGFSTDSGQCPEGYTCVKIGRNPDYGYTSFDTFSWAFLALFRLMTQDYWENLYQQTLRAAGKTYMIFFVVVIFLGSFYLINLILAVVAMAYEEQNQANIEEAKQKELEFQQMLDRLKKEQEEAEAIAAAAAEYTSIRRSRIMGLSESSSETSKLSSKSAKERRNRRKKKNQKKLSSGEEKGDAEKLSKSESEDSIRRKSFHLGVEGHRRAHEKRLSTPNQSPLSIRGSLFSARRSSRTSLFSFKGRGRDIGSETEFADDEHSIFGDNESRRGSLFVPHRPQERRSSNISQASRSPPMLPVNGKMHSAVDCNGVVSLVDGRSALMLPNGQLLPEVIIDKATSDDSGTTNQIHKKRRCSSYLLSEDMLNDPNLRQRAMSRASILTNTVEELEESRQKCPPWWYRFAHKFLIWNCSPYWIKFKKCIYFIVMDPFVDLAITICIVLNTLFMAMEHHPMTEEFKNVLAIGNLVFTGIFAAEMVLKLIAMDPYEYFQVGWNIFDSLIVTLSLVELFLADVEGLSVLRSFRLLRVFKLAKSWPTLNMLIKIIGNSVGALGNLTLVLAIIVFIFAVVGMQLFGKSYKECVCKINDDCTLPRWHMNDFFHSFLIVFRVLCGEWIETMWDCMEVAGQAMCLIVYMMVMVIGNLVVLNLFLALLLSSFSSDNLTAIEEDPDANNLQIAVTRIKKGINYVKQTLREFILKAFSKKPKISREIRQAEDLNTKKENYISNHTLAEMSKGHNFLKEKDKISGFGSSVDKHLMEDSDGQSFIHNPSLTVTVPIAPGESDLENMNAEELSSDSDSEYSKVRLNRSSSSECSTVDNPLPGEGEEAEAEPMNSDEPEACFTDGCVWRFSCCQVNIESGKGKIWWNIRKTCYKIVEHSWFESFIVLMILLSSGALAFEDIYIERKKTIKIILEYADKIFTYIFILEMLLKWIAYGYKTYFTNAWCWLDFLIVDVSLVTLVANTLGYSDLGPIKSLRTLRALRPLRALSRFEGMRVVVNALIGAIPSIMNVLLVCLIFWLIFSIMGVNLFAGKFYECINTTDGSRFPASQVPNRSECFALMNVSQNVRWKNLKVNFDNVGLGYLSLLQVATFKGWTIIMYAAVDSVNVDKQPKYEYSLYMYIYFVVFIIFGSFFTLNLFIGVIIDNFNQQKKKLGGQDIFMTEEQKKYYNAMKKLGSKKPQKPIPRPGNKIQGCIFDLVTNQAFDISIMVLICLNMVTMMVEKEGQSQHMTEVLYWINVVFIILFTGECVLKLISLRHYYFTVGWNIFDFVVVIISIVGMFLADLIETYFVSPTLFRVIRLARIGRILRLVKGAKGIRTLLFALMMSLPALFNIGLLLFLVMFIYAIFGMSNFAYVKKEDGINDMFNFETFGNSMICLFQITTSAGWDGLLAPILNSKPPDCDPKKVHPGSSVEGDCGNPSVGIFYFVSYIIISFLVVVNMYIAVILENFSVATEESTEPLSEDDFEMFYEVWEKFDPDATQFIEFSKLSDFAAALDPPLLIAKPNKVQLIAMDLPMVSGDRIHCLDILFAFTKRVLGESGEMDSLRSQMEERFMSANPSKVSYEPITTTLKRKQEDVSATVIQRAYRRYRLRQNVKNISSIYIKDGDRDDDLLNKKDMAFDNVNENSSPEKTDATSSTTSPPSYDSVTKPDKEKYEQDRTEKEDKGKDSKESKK

Row | SMILES | IC50
1 | CS(=O)(=O)N1CCN(c2cccc3c2cnn3-c2ccccc2F)C1=O [Example 6, 1-[1-(2-fluorophenyl)-1H-indazol-4-yl]-3-(methylsulfonyl)imidazolidin-2-one] | 1300 nM
2 | NC(=O)Cn1ccn(-c2cccc3c2cnn3-c2ccccc2F)c1=O [Example 9, 2-{3-[1-(2-fluorophenyl)-1H-indazol-4-yl]-2-oxo-2,3-dihydro-1H-imidazol-1-yl}acetamide] | 959 nM
3 | O=C1NCCN1c1cccc2c1cnn2-c1ccccc1F [Example 57, 1-[1-(2-fluorophenyl)-1H-indazol-4-yl]imidazolidin-2-one] | 9640 nM
4 | NS(=O)(=O)CN1CCN(c2cccc3c2cnn3-c2ccccc2F)C1=O [Example 58, 1-{3-[1-(2-fluorophenyl)-1H-indazol-4-yl]-2-oxoimidazolidin-1-yl}methanesulfonamide] | 2290 nM
5 | COCCN1CCN(c2cccc3c2cnn3-c2ccccc2F)C1=O [Example 59, 1-[1-(2-fluorophenyl)-1H-indazol-4-yl]-3-(2-methoxyethyl)imidazolidin-2-one] | 1890 nM
6 | CC(C)(C)C(=O)N1CCN(c2cccc3c2cnn3-c2ccccc2F)C1=O [Example 60, 1-(2,2-dimethylpropanoyl)-3-[1-(2-fluorophenyl)-1H-indazol-4-yl]imidazolidin-2-one] | 1990 nM
7 | O=C1CC(C(=O)N2CCN(c3cccc4c3cnn4-c3ccccc3F)C2=O)C1 [Example 61, 1-[1-(2-fluorophenyl)-1H-indazol-4-yl]-3-[(3-oxocyclobutyl)carbonyl]imidazolidin-2-one] | 2240 nM
8 | CNS(=O)(=O)N1CCN(c2cccc3c2cnn3-c2ccccc2F)C1=O [Example 62, 3-[1-(2-fluorophenyl)-1H-indazol-4-yl]-N-methyl-2-oxoimidazolidine-1-sulfonamide] | 1710 nM
9 | O=C1NCCN1CCN1CCN(c2cccc3c2cnn3-c2ccccc2F)C1=O [Example 63, 1-[1-(2-fluorophenyl)-1H-indazol-4-yl]-3-[2-(2-oxoimidazolidin-1-yl)ethyl]imidazolidin-2-one] | 4120 nM
10 | CC(C)(O)CN1CCN(c2cccc3c2cnn3-c2ccccc2F)C1=O [Example 64, 1-[1-(2-fluorophenyl)-1H-indazol-4-yl]-3-(2-hydroxy-2-methylpropyl)imidazolidin-2-one] | 9520 nM
11 | COC[C@H]1CC[C@H](COC)N1C(=O)CN1CCN(c2cccc3c2cnn3-c2ccccc2F)C1=O [Example 65, 1-{2-[(2R,5R)-2,5-bis(methoxymethyl)pyrrolidin-1-yl]-2-oxoethyl}-3-[1-(2-fluorophenyl)-1H-indazol-4-yl]imidazolidin-2-one] | 678 nM
12 | O=C(CN1CCN(c2cccc3c2cnn3-c2ccccc2F)C1=O)N1CCN2CCCC2C1 (centres unmarked) [Example 66, 1-[1-(2-fluorophenyl)-1H-indazol-4-yl]-3-[2-(hexahydropyrrolo[1,2-c]pyrazin-2(1H)-yl)-2-oxoethyl]imidazolidin-2-one] | 804 nM
13 | CC(C)OC1CN(C(=O)CN2CCN(c3cccc4c3cnn4-c3ccccc3F)C2=O)C1 [Example 67, 1-[1-(2-fluorophenyl)-1H-indazol-4-yl]-3-[2-(3-isopropoxyazetidin-1-yl)-2-oxoethyl]imidazolidin-2-one] | 2430 nM
14 | CN(CC1CCOCC1)C(=O)CN1CCN(c2cccc3c2cnn3-c2ccccc2F)C1=O [Example 68, 2-{3-[1-(2-fluorophenyl)-1H-indazol-4-yl]-2-oxoimidazolidin-1-yl}-N-methyl-N-(tetrahydro-2H-pyran-4-ylmethyl)acetamide] | 3570 nM
15 | CC1CN(C(=O)CN2CCN(c3cccc4c3cnn4-c3ccccc3F)C2=O)CC(C)O1 (centres unmarked) [Example 70, 1-[2-(2,6-dimethylmorpholin-4-yl)-2-oxoethyl]-3-[1-(2-fluorophenyl)-1H-indazol-4-yl]imidazolidin-2-one] | 12200 nM
16 | O=C1N(CC(=O)N2CCCC2CN2CCOCC2)CCN1c1cccc2c1cnn2-c1ccccc1F (centres unmarked) [Example 71, 1-[1-(2-fluorophenyl)-1H-indazol-4-yl]-3-{2-[2-(morpholin-4-ylmethyl)pyrrolidin-1-yl]-2-oxoethyl}imidazolidin-2-one] | 2340 nM

Row | SMILES | IC50
17 | CN(CCN1CCOCC1)C(=O)CN1CCN(c2cccc3c2cnn3-c2ccccc2F)C1=O [Example 72, 2-{3-[1-(2-fluorophenyl)-1H-indazol-4-yl]-2-oxoimidazolidin-1-yl}-N-methyl-N-[2-(morpholin-4-yl)ethyl]acetamide] | 1800 nM
18 | CCOCCNC(=O)CN1CCN(c2cccc3c2cnn3-c2ccccc2F)C1=O [Example 74, N-(2-ethoxyethyl)-2-{3-[1-(2-fluorophenyl)-1H-indazol-4-yl]-2-oxoimidazolidin-1-yl}acetamide] | 7540 nM
19 | CC(C)CCC(=O)N1CCN(c2cccc3c2cnn3-c2ccccc2F)C1=O [Example 76, 1-[1-(2-fluorophenyl)-1H-indazol-4-yl]-3-(4-methylpentanoyl)imidazolidin-2-one] | 2290 nM
20 | O=C1N(c2cccc3c2cnn3-c2ccccc2F)CCN1S(=O)(=O)C1CCCC1 [Example 77, 1-(cyclopentylsulfonyl)-3-[1-(2-fluorophenyl)-1H-indazol-4-yl]imidazolidin-2-one] | 2790 nM
21 | O=C1N(c2cccc3c2cnn3-c2ccccc2F)CCN1S(=O)(=O)C1CCCCC1 [Example 78, 1-(cyclohexylsulfonyl)-3-[1-(2-fluorophenyl)-1H-indazol-4-yl]imidazolidin-2-one] | 2940 nM
22 | O=C1N(c2cccc3c2cnn3-c2ccccc2F)CCN1S(=O)(=O)c1cccs1 [Example 79, 1-[1-(2-fluorophenyl)-1H-indazol-4-yl]-3-(2-thienylsulfonyl)imidazolidin-2-one] | 2270 nM
23 | CC(C)CS(=O)(=O)N1CCN(c2cccc3c2cnn3-c2ccccc2F)C1=O [Example 80, 1-[1-(2-fluorophenyl)-1H-indazol-4-yl]-3-(isobutylsulfonyl)imidazolidin-2-one] | 2380 nM
24 | CCCS(=O)(=O)N1CCN(c2cccc3c2cnn3-c2ccccc2F)C1=O [Example 81, 1-[1-(2-fluorophenyl)-1H-indazol-4-yl]-3-(propylsulfonyl)imidazolidin-2-one] | 4080 nM
25 | CC(C)S(=O)(=O)N1CCN(c2cccc3c2cnn3-c2ccccc2F)C1=O [Example 82, 1-[1-(2-fluorophenyl)-1H-indazol-4-yl]-3-(isopropylsulfonyl)imidazolidin-2-one] | 2460 nM
26 | CCS(=O)(=O)N1CCN(c2cccc3c2cnn3-c2ccccc2F)C1=O [Example 83, 1-(ethylsulfonyl)-3-[1-(2-fluorophenyl)-1H-indazol-4-yl]imidazolidin-2-one] | 20000 nM
27 | CC(C)(O)[C@H]1CCN(C(=O)CN2CCN(c3cccc4c3cnn4-c3ccccc3F)C2=O)C1 [Example 85, 1-[1-(2-fluorophenyl)-1H-indazol-4-yl]-3-{2-[(3S)-3-(2-hydroxypropan-2-yl)pyrrolidin-1-yl]-2-oxoethyl}imidazolidin-2-one] | 12300 nM
28 | O=C(CN1CCN(c2cccc3c2cnn3-c2ccccc2F)C1=O)N1CCC(F)(F)C1 [Example 86, 1-[2-(3,3-difluoropyrrolidin-1-yl)-2-oxoethyl]-3-[1-(2-fluorophenyl)-1H-indazol-4-yl]imidazolidin-2-one] | 1960 nM
29 | O=C1N(Cc2ccc(C(F)(F)F)cn2)CCN1c1cccc2c1cnn2-c1ccccc1F [Example 89, 1-[1-(2-fluorophenyl)-1H-indazol-4-yl]-3-{[5-(trifluoromethyl)pyridin-2-yl]methyl}imidazolidin-2-one] | 10600 nM
30 | C[C@H]1CCN(C(=O)CN2CCN(c3cccc4c3cnn4-c3ccccc3F)C2=O)C1 [Example 90, 1-[1-(2-fluorophenyl)-1H-indazol-4-yl]-3-{2-[(3S)-3-methylpyrrolidin-1-yl]-2-oxoethyl}imidazolidin-2-one] | 1720 nM
31 | O=C(CN1CCN(c2cccc3c2cnn3-c2ccccc2F)C1=O)N1CC(F)(F)C1 [Example 91, 1-[2-(3,3-difluoroazetidin-1-yl)-2-oxoethyl]-3-[1-(2-fluorophenyl)-1H-indazol-4-yl]imidazolidin-2-one] | 1740 nM
32 | CC(C)CNC(=O)CN1CCN(c2cccc3c2cnn3-c2ccccc2F)C1=O [Example 92, 2-{3-[1-(2-fluorophenyl)-1H-indazol-4-yl]-2-oxoimidazolidin-1-yl}-N-isobutylacetamide] | 1860 nM
